Experimental data as given in PMC12655637, “Design, Synthesis, and Mechanistic Study of Novel Ciprofloxacin/Thiazole Chalcone Hybrids as Potential Anticancer Agents” (Pharmaceuticals, 2025).

Experiments:
Test in all cases: NCI-60 screening, one-dose (10 µM) and five-dose, SRB
PC-3 = assay type: cell-based, human
MDA-MB-468 = assay type: cell-based, human; conditions: Homo sapiens
Excerpt: Control cells Test cells FLD
available usually at NCI library.
An aliquot of frozen drug concentrate is […]

HCT-116 = assay type: cell-based, human; conditions: five-dose, HCT-116
U251 = assay type: cell-based, human
A549/ATCC = assay type: cell-based, human
SF-539 = assay type: cell-based, human; conditions: five-dose, SF-539
BT-549 = assay type: cell-based
CCRF-CEM = assay type: cell-based, human
T-47D = assay type: cell-based, human; conditions: five-dose
SF-295 = assay type: cell-based, human
A498 = assay type: cell-based; conditions: five-dose, A498
NCI/ADR-RES = assay type: cell-based, human
KM12 = assay type: cell-based, human; conditions: five-dose, KM12
HCC-2998 = assay type: cell-based, human
MDA-MB-435 = assay type: cell-based
MDA-MB231/ATCC = assay type: cell-based
OVCAR-5 = assay type: cell-based, human; conditions: five-dose, OVCAR-5
K-562 = assay type: cell-based, human
EKVX = assay type: cell-based, human
SR = assay type: cell-based, human; conditions: five-dose
NCI-H23 = assay type: cell-based, human
MOLT-4 = assay type: cell-based, human
RXF 393 = assay type: cell-based; conditions: Homo sapiens; 10 μM; RXF 393, Renal Cancer; read-out: Growth percentage
HS 578T = assay type: cell-based, human
SK-OV-3 = assay type: cell-based, human
SNB-75 = assay type: cell-based, human
TK-10 = assay type: cell-based, human
HOP-92 = assay type: cell-based, human
HCT-15 = assay type: cell-based, human
HT29 = assay type: cell-based, human
ACHN = assay type: cell-based, human
[1] = Homo sapiens, U-251, five-dose, U251
[2] = Homo sapiens, 10 μM, Non-Small-Cell Lung Cancer, read-out: Growth percentage
[3] = Homo sapiens, five-dose, read-out: LC50 (the source's name)
[4] = Homo sapiens, read-out: LC50 (the source's name)
[5] = Homo sapiens, five-dose, BT-549
[6] = Homo sapiens, five-dose, SF-295
[7] = Homo sapiens, five-dose, HCC-2998
[8] = Homo sapiens, K562, five-dose, K-562
[9] = Homo sapiens, five-dose, NCI-H23
[10] = Homo sapiens, five-dose, MOLT-4
[11] = Homo sapiens, five-dose, SK-OV-3
[12] = Homo sapiens, five-dose, SNB-75
[13] = Homo sapiens, five-dose, HOP-92
[14] = Homo sapiens, five-dose, HCT-15
[15] = Homo sapiens, HT-29, five-dose, HT29

## Cc1nc(SCC(=O)N2CCN(c3cc4c(cc3F)c(=O)c(C(=O)O)cn4C3CC3)CC2)sc1C(=O)/C=C/c1cccc(F)c1 [Compound 4d, (E)-1-Cyclopropyl-6-fluoro-7-(4-(2-((5-(3-(3-fluorophenyl)acryloyl)-4-methylthiazol-2-yl)thio)acetyl)piperazin-1-yl)-4-oxo-1,4-dihydroquinoline-3-carboxylic Acid]
PC-3; Homo sapiens, 10 μM, PC-3, Prostate Cancer, read-out: Growth percentage
  activity at 10 µM: 53.4%
PC-3; Homo sapiens, five-dose, PC-3
  GI50: 51.3 µM
  IC50: > 100 µM
PC-3; Homo sapiens, five-dose, PC-3, read-out: LC50 (the source's name)
  CC50: > 100 µM
PC-3; five-dose, PC-3
  TGI: 100.0 µM
MDA-MB-468; MDA-MB-468, 10 μM, MDA-MB-468, Breast Cancer, read-out: Growth percentage
  activity at 10 µM: -11.1%
MDA-MB-468; five-dose, MDA-MB-468
  GI50: 4.1 µM
  IC50: > 100 µM
MDA-MB-468; five-dose, MDA-MB-468, read-out: LC50 (the source's name)
  CC50: > 100 µM
HCT-116; Homo sapiens
  GI50: 0.21 µM
  IC50: 0.34 µM
HCT-116
  TGI: 100.0 µM
U251; Homo sapiens, U-251, 10 μM, U251, CNS Cancer, read-out: Growth percentage
  activity at 10 µM: -7.6%
U251; [1]
  GI50: > 100 µM
  IC50: > 100 µM
U251; Homo sapiens, U-251, five-dose, U251, read-out: LC50 (the source's name)
  CC50: > 100 µM
U251; five-dose, U251
  TGI: 100.0 µM
A549/ATCC; [2]
  activity at 10 µM: 65.8%
A549/ATCC; Homo sapiens, five-dose
  GI50: > 100 µM
  IC50: > 100 µM
A549/ATCC; [3]
  CC50: > 100 µM
A549/ATCC; five-dose
  TGI: 7.94 µM
SF-539; Homo sapiens
  GI50: 2 µM
  IC50: 4.1 µM
SF-539; [4]
  CC50: > 100 µM
SF-539
  TGI: 100.0 µM
BT-549; Homo sapiens, 10 μM, BT-549, Breast Cancer, read-out: Growth percentage
  activity at 10 µM: -88.5%
BT-549; [5]
  GI50: 5.4 µM
  IC50: 25.7 µM
BT-549; Homo sapiens, five-dose, BT-549, read-out: LC50 (the source's name)
  CC50: > 100 µM
BT-549; five-dose, BT-549
  TGI: 100.0 µM
CCRF-CEM; Homo sapiens, 10 μM, Leukemia, read-out: Growth percentage
  activity at 10 µM: 17.1%
CCRF-CEM; Homo sapiens, five-dose
  GI50: 2.88 µM
  IC50: 4.37 µM
CCRF-CEM; [3]
  CC50: > 100 µM
CCRF-CEM; five-dose
  TGI: 4.3 µM
T-47D; Homo sapiens, T47D
  GI50: > 100 µM
  IC50: > 100 µM
T-47D; Homo sapiens, T47D, read-out: LC50 (the source's name)
  CC50: > 100 µM
T-47D
  TGI: 77.6 µM
SF-295; Homo sapiens, 10 μM, SF-295, CNS Cancer, read-out: Growth percentage
  activity at 10 µM: 93.1%
SF-295; [6]
  GI50: > 100 µM
  IC50: > 100 µM
SF-295; Homo sapiens, five-dose, SF-295, read-out: LC50 (the source's name)
  CC50: > 100 µM
SF-295; five-dose, SF-295
  TGI: 8.7 µM
A498; Homo sapiens
  GI50: > 100 µM
  IC50: > 100 µM
A498; [4]
  CC50: > 100 µM
A498
  TGI: 100.0 µM
NCI/ADR-RES; Homo sapiens, 10 μM, Ovarian Cancer, read-out: Growth percentage
  activity at 10 µM: 110%
NCI/ADR-RES; Homo sapiens, five-dose
  GI50: > 100 µM
  IC50: > 100 µM
NCI/ADR-RES; [3]
  CC50: > 100 µM
NCI/ADR-RES; five-dose
  TGI: 100.0 µM
KM12; Homo sapiens
  GI50: 0.52 µM
  IC50: 0.69 µM
  LC50: 6.92 µM
KM12
  TGI: 97.7 µM
HCC-2998; Homo sapiens, 10 μM, HCC-2998, Colon Cancer, read-out: Growth percentage
  activity at 10 µM: -29%
HCC-2998; [7]
  GI50: 1.4 µM
  IC50: 8.5 µM
HCC-2998; Homo sapiens, five-dose, HCC-2998, read-out: LC50 (the source's name)
  CC50: > 100 µM
HCC-2998; five-dose, HCC-2998
  TGI: 0.42 µM
MDA-MB-435; Homo sapiens, MDA-MB-435
  GI50: 3.7 µM
  IC50: 6.9 µM
MDA-MB-435; Homo sapiens, MDA-MB-435, read-out: Growth percentage, 10 μM, MDA-MB-435, Melanoma
  activity at 10 µM: -3.7%
MDA-MB-435; Homo sapiens, five-dose, MDA-MB-435, read-out: LC50 (the source's name)
  CC50: > 100 µM
MDA-MB-435; five-dose, MDA-MB-435
  TGI: 100.0 µM
MDA-MB231/ATCC; Homo sapiens, MDA-MB-231
  GI50: > 100 µM
  IC50: > 100 µM
MDA-MB231/ATCC; Homo sapiens, five-dose, MDA-MB-231/ATCC, read-out: LC50 (the source's name)
  CC50: > 100 µM
MDA-MB231/ATCC; five-dose, MDA-MB-231/ATCC
  TGI: 100.0 µM
OVCAR-5; Homo sapiens
  GI50: > 100 µM
  IC50: > 100 µM
OVCAR-5; [4]
  CC50: > 100 µM
OVCAR-5
  TGI: 100.0 µM
K-562; Homo sapiens, K562, 10 μM, K-562, Leukemia, read-out: Growth percentage
  activity at 10 µM: 56.1%
K-562; [8]
  GI50: 1.58 µM
  IC50: 2.4 µM
K-562; Homo sapiens, K562, five-dose, K-562, read-out: LC50 (the source's name)
  CC50: 9.12 µM
K-562; five-dose, K-562
  TGI: 8.7 µM
EKVX; [2]
  activity at 10 µM: 70.2%
EKVX; Homo sapiens, five-dose
  GI50: 1.7 µM
  IC50: 5.9 µM
EKVX; [3]
  CC50: > 100 µM
EKVX; five-dose
  TGI: 100.0 µM
SR; Homo sapiens
  GI50: 1.4 µM
  IC50: 2.3 µM
SR; [4]
  CC50: 5.3 µM
SR
  TGI: 100.0 µM
NCI-H23; Homo sapiens, 10 μM, NCI-H23, Non-Small-Cell Lung Cancer, read-out: Growth percentage
  activity at 10 µM: 45.6%
NCI-H23; [9]
  GI50: > 100 µM
  IC50: > 100 µM
  LC50 (50% lethal concentration): > 100 µM
NCI-H23; five-dose, NCI-H23
  TGI: 100.0 µM
MOLT-4; Homo sapiens, 10 μM, MOLT-4, Leukemia, read-out: Growth percentage
  activity at 10 µM: 0.79%
MOLT-4; [10]
  GI50: 3.4 µM
  IC50: 4.8 µM
  LC50 (concentration killing 50% of cells): 53.7 µM
MOLT-4; five-dose, MOLT-4
  TGI: 0.34 µM
RXF 393
  activity at 10 µM: -25.9%
HS 578T; Homo sapiens, 10 μM, Breast Cancer, read-out: Growth percentage
  activity at 10 µM: 36.2%
HS 578T; Homo sapiens, five-dose
  GI50: > 100 µM
  IC50: > 100 µM
HS 578T; [3]
  CC50: > 100 µM
HS 578T; five-dose
  TGI: 28.2 µM
SK-OV-3; Homo sapiens, 10 μM, SK-OV-3, Ovarian Cancer, read-out: Growth percentage
  activity at 10 µM: 5%
SK-OV-3; [11]
  GI50: > 100 µM
  IC50: > 100 µM
SK-OV-3; Homo sapiens, five-dose, SK-OV-3, read-out: LC50 (the source's name)
  CC50: > 100 µM
SK-OV-3; five-dose, SK-OV-3
  TGI: 100.0 µM
SNB-75; Homo sapiens, 10 μM, SNB-75, CNS Cancer, read-out: Growth percentage
  activity at 10 µM: 49.1%
SNB-75; [12]
  GI50: > 100 µM
  IC50: > 100 µM
SNB-75; Homo sapiens, five-dose, SNB-75, read-out: LC50 (the source's name)
  CC50: > 100 µM
SNB-75; five-dose, SNB-75
  TGI: 100.0 µM
TK-10; Homo sapiens, 10 μM, TK-10, Renal Cancer, read-out: Growth percentage
  activity at 10 µM: 97.5%
TK-10; Homo sapiens, five-dose, TK-10
  GI50: > 100 µM
  IC50: > 100 µM
TK-10; Homo sapiens, five-dose, TK-10, read-out: LC50 (the source's name)
  CC50: > 100 µM
TK-10; five-dose, TK-10
  TGI: 100.0 µM
HOP-92; Homo sapiens, 10 μM, HOP-92, Non-Small-Cell Lung Cancer, read-out: Growth percentage
  activity at 10 µM: 91.9%
HOP-92; [13]
  GI50: > 100 µM
  IC50: > 100 µM
  LC50 (concentration killing 50% of cells): > 100 µM
HOP-92; five-dose, HOP-92
  TGI: 100.0 µM
HCT-15; Homo sapiens, 10 μM, HCT-15, Colon Cancer, read-out: Growth percentage
  activity at 10 µM: -41.7%
HCT-15; [14]
  GI50: 33.9 µM
  IC50: 53.7 µM
  LC50 (50% lethal concentration): > 100 µM
HCT-15; five-dose, HCT-15
  TGI: 100.0 µM
HT29; Homo sapiens, HT-29, 10 μM, HT29, Colon Cancer, read-out: Growth percentage
  activity at 10 µM: 3.7%
HT29; [15]
  GI50: > 100 µM
  IC50: 100 µM
HT29; Homo sapiens, HT-29, five-dose, HT29, read-out: LC50 (the source's name)
  CC50: > 100 µM
HT29; five-dose, HT29
  TGI: 1.91 µM
ACHN; Homo sapiens, 10 μM, Renal Cancer, read-out: Growth percentage
  activity at 10 µM: 94.4%
ACHN; Homo sapiens, five-dose
  GI50: > 100 µM
  IC50: > 100 µM
ACHN; [3]
  CC50: > 100 µM
ACHN; five-dose
  TGI: 100.0 µM
